# Patent EP4659750A1, “PHARMACEUTICAL COMPOSITION CONTAINING ß-LACTAMASE INHIBITOR AND USE THEREOF” (Evopoint Biosciences Co., Ltd., priority 2023, dated 2024)
# Like-named read-outs stand apart in the source and are kept apart here.
# What was measured:
# OXA β-lactamases = test: In vitro inhibition of OXA β-lactamases; format: biochemical, Acinetobacter baumannii; conditions: in vitro (background statement)
# [1] = test system: Klebsiella pneumoniae ARo113; test: Neutropenic mouse thigh infection model, Example 4; format: in vivo; conditions: doses at 1,3,5,7 h, thighs 9 h after inoculation
# Procedure: (§1) In the following examples, the tests are conducted following the steps below. • (1) Immunization of mice: All mice are injected intraperitoneally with 150 mg/kg cyclophosphamide 4 days before inoculation and 100 mg/kg cyclophosphamide 1 day before inoculation to reduce their neutrophils by immunosuppression. […] The mice are inoculated approximately 24 hours after the second administration of the immunosuppressant. • (2) Bacterial culture: All bacterial strains used for inoculation are prepared from overnight broth cultures. In brief, each strain is allowed to grow in cation-adjusted MuellerHinton broth in a shaking incubator (300 RPM) at 37°C. The overnight cultures are washed twice with phosphate buffer solution (PBS) and adjusted to the optimal concentration in PBS.
# (§2) For intravenous (IV) administration, the solution of Compound 1 is prepared using a Captisol vehicle, which is 25 mM acetate buffer (prepared with sodium acetate trihydrate) containing 10% w/v Captisol. The pH is adjusted to 5.0 with 2N acetic acid solution. A desired volume of buffer is added to the weighed sample, the desired concentration of Compound 1 is prepared in the buffer, which is then ultrasonically heated in a water bath until a clear solution was obtained. The administrated volume of Compound 1 is 5 mL/kg.
# (§3) For subcutaneous (SC) administration, an imipenem solution or imipenem-cilastatin solution is prepared in sterile PBS by using imipenem monohydrate or imipenem monohydrate and cilastatin sodium. The desired concentration of imipenem is prepared by adding PBS to the solid powder, then sonicating the mixture in a water bath until a clear solution is obtained, and the administrated volume is 10 mL/kg.
# (§4) The mice were divided into 16 groups, with 5 mice in each group. The test was carried out following the above steps, the concentration of the bacterial solution of Klebsiella pneumoniae ARo113 was 4.0x10^6 CFU per gram of thigh tissues, and the administration was conducted according to the scheme in the table below.
# (§5) For Groups 2 to 16 above, animals were euthanized 9 hours after inoculation using an overdose of sodium pentobarbital, followed by confirmation of death by cervical dislocation. The thighs were dissected and weighed, then homogenized in an ice-cold sterile phosphate buffer using a Precellys microsphere homogenizer; and the homogenate was quantitatively cultured on drug-free agar (CLED or PSA) and incubated for 12-16 h at 30°C, followed by colony counting.
# (§6) For the […] Group 1 (control group) above, animals were euthanized with an overdose of sodium pentobarbital 1 hour after inoculation. As described above, bilateral thighs were dissected and quantitatively cultured for use as final samples.
# [2] = test system: Pseudomonas aeruginosa ACC00680; test: Neutropenic mouse thigh infection model, Example 1 (imipenem and Compound 1); format: in vivo; conditions: doses at 1,3,5,7 h, thighs 9 h after inoculation
# Procedure: as §1, §2, §3
# as §4, with “15” for “16”, “Pseudomonas aeruginosa ACC00680” for “Klebsiella pneumoniae ARo113”, “1.83×10^5 colony forming unit (CFU)” for “4.0x10^6 CFU”
# as §5, with “15” for “16”, “18-24” for “12-16”, “37°C,” for “30°C,”
# as §6
# [3] = test system: Pseudomonas aeruginosa ACC00680; test: Neutropenic mouse thigh infection model, Example 2 (imipenem, cilastatin and Compound 1); format: in vivo; conditions: Compound 1 96 mg/kg total IV; doses at 1,3,5,7 h; thighs 9 h after inoculation
# Procedure: as §1, with “The overnight cultures are washed twice with phosphate buffer solution (PBS) and adjusted to the optimal concentration in PBS.” left out
# as §5, with “18-24” for “12-16”, “37°C,” for “30°C,”
# as §6
# [4] = Solubility of Compound 1 (HPLC), selection of solubilizer type; format: physicochemical; conditions: for solubility at 24 h: read-out: Concentration
# Procedure: The solubilization effect of sodium sulfobutylether-β-cyclodextrin (SBECD) and hydroxypropyl-β-cyclodextrin (HP-β-CD) on Compound 1 was investigated by taking the solubility in 50 mM pH 4.5 acetate buffer medium and water as a reference. […] Table Solubility of Compound 1 incubated for 24 h at 25°C
# In the art, surfactants may also be used for solubilization. To further improve the solubility of Compound 1, a surfactant was added on the basis of SBECD to investigate the solubility. […] Table Solubility of Compound 1 incubated for 24 h at 25°C
# [5] = test system: Acinetobacter baumannii AR0274; test: Neutropenic mouse thigh infection model, Example 3; format: in vivo; conditions: doses at 1,3,5,7 h, thighs 9 h after inoculation
# Procedure: as §1, §2, §3
# The mice were divided into 16 groups, with 5 mice in each group. The test was carried out following the above experimental steps, the inoculation amount of Acinetobacter baumannii AR0274 was 1.8×10^6 CFU per gram of thigh tissue, and the administration was conducted according to the scheme in the table below.
# as §5, with “18-24” for “12-16”, “37°C,” for “30°C,”
# as §6
# Pseudomonas aeruginosa = test: Mice neutropenic thigh infection model, human-simulated dosing regimen, Example 5; format: in vivo; conditions: monotherapy, human-simulated imipenem dosing regimen (500 mg, q6h, infused for 60 minutes); four strains; 24 h
# Procedure: In terms of administrated dose, imipenem was administered with a human-simulated dosing regimen (500 mg, q6h, infused for 60 minutes),and also combined with different doses of Compound 1.
# Klebsiella pneumoniae = test: as above; format: in vivo; conditions: monotherapy, human-simulated imipenem dosing regimen (500 mg, q6h, infused for 60 minutes); four strains
# Acinetobacter baumannii = test: as above; format: in vivo; conditions: monotherapy, human-simulated imipenem dosing regimen (500 mg, q6h, infused for 60 minutes); seven strains; 24 h
compound,measurement,setting,value
N=C1NC[C@@H](c2nnc([C@@H]3CC4(CC4)[C@@H]4CN3C(=O)N4OS(=O)(=O)O)o2)N1 [Compound 1],inhibition of OXA β-lactamases,OXA β-lactamases,effectively inhibit
same,Change in Pre-Tx Log10 loading (CFU/g),[1]; Compound 1 96 mg/kg total,1.11 log10 CFU/g
same,Log10 group geometric mean (CFU/g),[1]; Compound 1 96 mg/kg total,7.31 log10 CFU/g
same,Change in Pre-Tx Log10 load,[2]; Compound 1 50 mg/kg total IV,0.36 log10 CFU/g
same,Log10 group geometric mean (CFU/g),[2]; Compound 1 50 mg/kg total IV,5.67 log10 CFU/g
same,Change in Pre-Tx Log10 load,[2]; Compound 1 75 mg/kg total IV,0.98 log10 CFU/g
same,Log10 group geometric mean (CFU/g),[2]; Compound 1 75 mg/kg total IV,6.29 log10 CFU/g
same,Change in Pre-Tx Log10 load,[2]; Compound 1 100 mg/kg total IV,1.35 log10 CFU/g
same,Log10 group geometric mean (CFU/g),[2]; Compound 1 100 mg/kg total IV,6.65 log10 CFU/g
same,Change in Pre-Tx Log10 loading (CFU/g),[3],2.45 log10 CFU/g
same,Log10 group geometric mean (CFU/g),[3],7.51 log10 CFU/g
same,solubility at 24 h,"[4]; 50 mm acetate buffer, pH 4.5, aqueous buffer, solubility in 50 mM acetate buffer (pH 4.5) (control), 24 h at 25°C",3850 µg/mL
same,solubility at 24 h,"[4]; aqueous hp-β-cd 10%, solubility in aqueous HP-β-CD 10%, 24 h at 25°C",5000 µg/mL
same,solubility at 24 h,"[4]; aqueous hp-β-cd 20%, solubility in aqueous HP-β-CD 20%, 24 h at 25°C",6400 µg/mL
same,solubility at 24 h,"[4]; aqueous hp-β-cd 30%, solubility in aqueous HP-β-CD 30%, 24 h at 25°C",7720 µg/mL
same,solubility at 24 h,"[4]; aqueous sbecd 10%, peg 400, organic solvent or mixture, solubility in aqueous SBECD 10% and PEG 400 5%, 24 h at 25°C",6210 µg/mL
same,solubility at 24 h,"[4]; aqueous sbecd 10%, peg 400, organic solvent or mixture, solubility in aqueous SBECD 10% and PEG 400 20%, 24 h at 25°C",6350 µg/mL
same,solubility at 24 h,"[4]; aqueous sbecd 10%, peg 400, organic solvent or mixture, solubility in aqueous SBECD 10% and PEG 400 40%, 24 h at 25°C",6840 µg/mL
same,solubility at 24 h,"[4]; aqueous sbecd 10%, pvp k12, solubility in aqueous SBECD 10% and PVP K12 0.5%, 24 h at 25°C",6440 µg/mL
same,solubility at 24 h,"[4]; aqueous sbecd 10%, pvp k12, solubility in aqueous SBECD 10% and PVP K12 1%, 24 h at 25°C",6420 µg/mL
same,solubility at 24 h,"[4]; aqueous sbecd 10%, pvp k12, solubility in aqueous SBECD 10% and PVP K12 2.5%, 24 h at 25°C",6380 µg/mL
same,solubility at 24 h,"[4]; aqueous sbecd 10%, solubility in aqueous SBECD 10%, 24 h at 25°C",5960 µg/mL
same,solubility at 24 h,"[4]; aqueous sbecd 20%, solubility in aqueous SBECD 20%, 24 h at 25°C",8460 µg/mL
same,solubility at 24 h,"[4]; aqueous sbecd 30%, solubility in aqueous SBECD 30%, 24 h at 25°C",10500 µg/mL
same,solubility at 24 h,"[4]; aqueous sbecd, poloxamer 188, solubility in aqueous SBECD 10% and Poloxamer 188 1%, 24 h at 25°C",6750 µg/mL
same,solubility at 24 h,"[4]; aqueous sbecd, pvp, poloxamer 188, solubility in aqueous SBECD 10%, PVP K12 0.5% and Poloxamer 188 1%, 24 h at 25°C",6950 µg/mL
same,solubility at 24 h,"[4]; aqueous sbecd, pvp, solutol hs15, solubility in aqueous SBECD 10%, PVP K12 0.5% and Solutol HS15 1%, 24 h at 25°C",6870 µg/mL
same,solubility at 24 h,"[4]; aqueous sbecd, pvp, tween 80, solubility in aqueous SBECD 10%, PVP K12 0.5% and Tween 80 1%, 24 h at 25°C",6990 µg/mL
same,solubility at 24 h,"[4]; aqueous sbecd, solutol hs15, solubility in aqueous SBECD 10% and Solutol HS15 1%, 24 h at 25°C",6680 µg/mL
same,solubility at 24 h,"[4]; aqueous sbecd, tween 80, solubility in aqueous SBECD 10% and Tween 80 1%, 24 h at 25°C",6920 µg/mL
same,Concentration,"[4]; solubility in aqueous SBECD 10%, 24 h at 25°C",5960 µg/mL
same,Concentration,"[4]; solubility in water (control), incubated 24 h at 25°C",600 µg/mL
same,solubility at 24 h,"[4]; water, solubility in water (control), incubated 24 h at 25°C",600 µg/mL
same,Change in Pre-Tx Log10 loading (CFU/g),[5]; Compound 1 96 mg/kg total IV,1.53 log10 CFU/g
same,Log10 group geometric mean (CFU/g),[5]; Compound 1 96 mg/kg total IV,7.28 log10 CFU/g
"C[C@@H](O)[C@H]1C(=O)N2C(C(=O)O)=C(SCCN=CN)C[C@H]12 [Imipenem, imipenem monohydrate]",Change in Pre-Tx Log10 loading (CFU/g),[1]; Imipenem 96 mg/kg total SC,0.93 log10 CFU/g
same,Group geometric mean (CFU/g),[1]; Imipenem 96 mg/kg total SC,1.34×10^7 CFU/g
same,Log10 group geometric mean (CFU/g),[1]; Imipenem 96 mg/kg total SC,7.13 log10 CFU/g
same,Change in Pre-Tx Log10 load,[2]; Imipenem 100 mg/kg total SC,0.73 log10 CFU/g
same,Group geometric mean (CFU/g),[2]; Imipenem 100 mg/kg total SC,1.08×10^6 CFU/g
same,Log10 group geometric mean (CFU/g),[2]; Imipenem 100 mg/kg total SC,6.03 log10 CFU/g
same,mean increase in bacterial load,Pseudomonas aeruginosa,2.64 ± 1.18 log10 CFU/thigh
same,mean increase in bacterial load,Klebsiella pneumoniae,2.83 ± 0.81 log10 CFU/thigh
same,mean increase in bacterial load,Acinetobacter baumannii,2.16 ± 0.74 log10 CFU/thigh
same,Change in Pre-Tx Log10 loading (CFU/g),[5]; Imipenem 96 mg/kg total SC,1.85 log10 CFU/g
same,Group geometric mean (CFU/g),[5]; Imipenem 96 mg/kg total SC,3.91×10^7 CFU/g
same,Log10 group geometric mean (CFU/g),[5]; Imipenem 96 mg/kg total SC,7.59 log10 CFU/g
